Values quoted from earlier work, collected in patent US20070025948A1, “Dilution-type sterilizer composition” (Dainippon Sumitomo Pharma Co. Ltd, priority 2003, published 2007).
Counter-ions that a name gives are not always drawn. Like-named read-outs stand apart in the source and are kept apart here.

Tests used:
[1] = hydrophilic-lipophilic balance, from new Surfactant Handbook
[2] = 20° C.

## CCCCCCCCCCCCOS(=O)(=O)[O-].[Na+] [sodium lauryl sulfate]
[1]
  HLB: ~40

## CCCCCCCCCCCCCCCCCC(=O)[O-].[Na+] [sodium stearate]
[1]
  HLB: 18

## [H]/N=C(\N/C(=N/[H])NCCCCCCNC(=N)NC(=N)Nc1ccc(Cl)cc1)Nc1ccc(Cl)cc1 [chlorhexidine gluconate]
[2]
  solubility in water: not less than 50 w/v %

## [H]/N=C(\N/C(=N/[H])NCCCCCCNC(=N)NC(=N)Nc1ccc(Cl)cc1)Nc1ccc(Cl)cc1 [Chlorhexidine]
[2]
  solubility in water: 0.08 w/v %

## [H]/N=C(\N/C(=N/[H])NCCCCCCNC(=N)NC(=N)Nc1ccc(Cl)cc1)Nc1ccc(Cl)cc1 [chlorhexidine hydrochloride]
[2]; hydrochloride
  solubility in water: 0.06 w/v %
